According to paper PMC7898648, “Synthesis and Evaluation of Non‐Hydrolyzable Phospho‐Lysine Peptide Mimics” (Chemistry (Weinheim an Der Bergstrasse, Germany), 2020):

Tests used:
[1] = NMR titration for pKa determination of model peptides; format: physicochemical; settings: 1 mM peptide in 40 mM KCl (H2O + 10 % D2O); for pKa2 (from 31P chemical shift vs pH, inflection point of sigmoidal fit): pH 2 to 11, 278 K, 600 MHz, 8a/8b: mono-protonated phosphoryl oxygen to di-anion, 8c: complete deprotonation of the phosphoryl oxygens
Description: Next, we aimed to evaluate the charge distribution of peptides 8 a–c at physiological pH. […] An elegant technique for the pK a determination is NMR titration since this non‐invasive analytical technique enables accurate measurements at desired temperatures at a given pH. Our experimental set up was inspired by the NMR titration conducted by Gamcsik et al. on phosphoramidic acid and other phosphoramides. ^[23] Samples were prepared at a 1 mM concentration in 40 mM KCl (water + 10 % deuterium oxide) and kept at low temperature to minimize P−N bond hydrolysis for 8 c. The pH of each sample was adjusted before measurement and checked again afterwards. Proton (^1H), phosphorous (^31P) 1D as well as ^1H‐^31P‐heteronuclear multiple bond […] (HMBC) NMR spectra were recorded from pH 2 to pH 11 on a 600 MHz (^1H frequency) spectrometer at 278 K and subsequently used for calculations of pK a values (Figure 2 A, exemplified for 8 a, see Figure S3 for 8 b). In order to do so, the chemical shift of ^31P was plotted against the pH values and resulting curves fitted with sigmoidal functions wherein pK a values were obtained from the inflection points (Figure 2 B). We further evaluated the data by plotting and fitting of the ^1H chemical shifts – ζ‐protons for phosphonate 8 a and ϵ‐protons for phosphate 8 b and phosphoramidate 8 c (Figure S4).
Figure 2 A. NMR titration experiments of peptide 8 a. Conditions: NMR spectra of a solution containing 1 mM peptide in 40 mM KCl (H2O+10 % D2O) were recorded at distinct pH values on a 600 MHz (^1H frequency) spectrometer at 278 K. Shown are the overlay of 1D‐^31P spectra at different pH values and extracted correlation signals between ϵ‐protons and phosphorous from ^1H,^31P‐HMBC experiments. B. Graphical visualization of ^31P NMR measurements for phosphonate 8 a (red), phosphate 8 b (blue) and phosphoramidate 8 c (black).

[2] = target: T1, alkaline phosphatase (ALP) (Bos taurus, UniProt P19111); assay: Enzymatic stability against alkaline phosphatase (released inorganic phosphate, EnzCheck kit); format: in vitro ADME; settings: 1 mM substrate, 50 mM Tris, 1 mM MgCl2, 1 mM ZnCl2, pH 8.2, 30 °C, 0.05 U ALP, 2 h; photometric read-out of released Pi at 360 nm (SI: 100 μM, pH 7.8, 90 min); blank without enzyme subtracted
T1 construct: purchased Sigma-Aldrich (aliquots provided by Prof. Fiedler)
Description: With the three peptides 8 a–c in hand, we tested their enzymatic stability against the promiscuous alkaline phosphatase (ALP). The substrates 8 a–c were tested for stability towards ALP under optimized conditions. Briefly, 1 mM substrate was dissolved in 50 mM Tris, 1 mM MgCl2, 1 mM ZnCl2, pH 8.2, at 30 °C and was incubated with 0.05 U ALP for 2 h. and the amount of released inorganic phosphate (Pi) was determined via photometric read‐out. […] Furthermore, treatment of 8 b with ALP yielded in a Pi release, which indicated susceptibility of the phosphate analogue towards phosphatases.
Treatment of peptides 8a-c with alkaline phosphatase (ALP). […]
enzymatically hydrolyzed substrate, calculated by subtraction of detected inorganic phosphate (Pi) in blank reactions (without enzyme) from the reactions with enzyme ad de d . He r e i n , w e observed dephosphorylation for both peptides 8b and 8c, which indicated susceptibility of the phosphate analogue towards phosphatases. […]
Reactions were run for 90 min in total, UV -absorbance was measured every 10 min. The enzymatic hydrolysis yield [E] was determined by substraction of [BG]w/oBL from […]
UV/Vis spectra and absorbance values were determined either on a V -630 spectrophotometer at r.t. or a V-550 UV/Vis spectrophotometer equipped with an ETC-505T temperature controller at 20 °C (both Jasco, Tokyo, Japan). […]

[3] = potentiometrically detected; cited from earlier work

T1 sequence (P19111 20-506 limits assumed): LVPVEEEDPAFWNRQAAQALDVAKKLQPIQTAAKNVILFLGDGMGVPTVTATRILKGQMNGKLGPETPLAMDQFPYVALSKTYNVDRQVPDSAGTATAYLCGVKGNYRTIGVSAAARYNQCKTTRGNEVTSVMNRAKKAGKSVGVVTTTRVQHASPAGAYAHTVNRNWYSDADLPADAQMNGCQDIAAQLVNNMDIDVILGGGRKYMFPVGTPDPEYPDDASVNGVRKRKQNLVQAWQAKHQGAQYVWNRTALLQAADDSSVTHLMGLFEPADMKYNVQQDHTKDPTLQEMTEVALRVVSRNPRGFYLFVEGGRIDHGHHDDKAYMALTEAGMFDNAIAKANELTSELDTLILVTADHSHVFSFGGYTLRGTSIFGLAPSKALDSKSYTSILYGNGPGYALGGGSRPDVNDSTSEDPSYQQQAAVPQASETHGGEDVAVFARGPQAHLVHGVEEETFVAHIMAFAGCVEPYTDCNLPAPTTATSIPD

stability towards ALP (enzymatic hydrolysis, Pi release) [2] | Structure (SMILES) | pKa2 (from 31P chemical shift vs pH, inflection point of sigmoidal fit) [1] | pKa for the protonation on nitrogen [3] | pKa for the protonation on one phosphoryl oxygen [3] | pKa3 (deprotonation of the amine) ([1]; 31P shift vs pH, 278 K)
 | CC(=O)N[C@@H](Cc1ccc(O)cc1)C(=O)N[C@@H](CCSCCP(=O)(O)O)C(=O)NCC(N)=O [8a] | 7.08±0.03 |  |  | 
dephosphorylation | CC(=O)N[C@@H](Cc1ccc(O)cc1)C(=O)N[C@@H](CCCCOP(=O)(O)O)C(=O)NCC(N)=O [8b] | 6.54±0.13 |  |  | 
 | CCCCNP(=O)(O)O [N‐(n‐butyl)phosphoramidate] |  | 9.9 | 2.9 | 
 | CC(=O)N[C@@H](Cc1ccc(O)cc1)C(=O)N[C@@H](CCCCNP(=O)(O)O)C(=O)NCC(N)=O [8c, ^AcTyrpLysGly^CONH2] | 2.88±0.30 |  |  | 9.64±0.07
